# Data taken from patent publication US20100183658A1, “Novel Compounds for Enhancing MHC Class II Therapies” (The Brigham and Women's Hospital, Inc., priority 2007, published 2010).
# Entries after “also recorded” stand apart in the source; their conditions may differ. Ends that are not written are not given here. C(Compound (Ia)-maleimide) = not defined here
# What was measured:
# empty DR2 molecules = target: T1, empty DR2 molecules (Homo sapiens, UniProt P01903+P01911); assay: Association of Alexa-488 MBP peptide to empty DR2 molecules after photo-cleavage of bound peptide (FP); type: biochemical; conditions: photo-cleaved bound peptide, with versus without compound
# T1 construct: we generated DR/CLIP complexes as soluble molecules in CHO cells; CLIP peptide (of invariant chain, CD74) joined through a linker with a thrombin cleavage site (N, cleaved yes); made in house
# From the text: DM acts as a catalyst that accelerates peptide binding reactions and increases both the rate of peptide dissociation and association. […] Rigorous testing of this hypothesis required generation of empty DR molecules, a task that is challenging because DR molecules aggregate over time in the absence of peptide. Applicants therefore synthesized a peptide with a photo-cleavable residue (a derivative of phenylalanine), so that the binding site could be rapidly vacated by peptide cleavage. This approach has been reported for the creation of empty MHC class I molecules (Toebes et al., 2006, Nat. Med., 12:246-251). The photoreactive group [3-amino-3-(2-nitro) phenyl-propionic acid; […]] was placed at the P4 position of the peptide, close to the center of DR2 bound peptide. The peptide also carried an N-terminal DNP group for affinity isolation of the complex generated with this peptide. […] Applicants then loaded this peptide onto DR2 molecules, isolated the complex by DNP affinity chromatography, irradiated the samples at 360 nm at 4° C., added Alexa™-488 labeled MBP and tracked its association to DR2 by FP in the presence and absence of Compound (Ia). Applicants observed a striking Compound (Ia)-induced acceleration of Alexa™-488 MBP association to DR2 when the bound peptide was photo-cleaved compared to reactions with photo-cleavage but no Compound (Ia) as diagrammed in FIG. 5. […]
# MGAR cells = assay: Cellular assay: MBP peptide loading on MGAR cells, FACS labeling with MK16 mAb; type: cell-based, human; conditions: for activity relative to Compound (Ia) in loading of MBP peptide to DR2: MGAR cells, MBP peptide 1 μM, FIG. 13B, 14B
# Procedure: The cells were then labeled with biotinylated MK16 Fab and streptavidin-APC and analyzed by FACS. Cells not pulsed with peptide (green line) were used as a negative control to define background labeling of MK16.
# (§1) MGAR cells were incubated with MBP peptide (1 μM) in the presence of different compounds and the amount of DR2 bound peptide was determined by FACS labeling with the MK16 mAb.
# as §1, §1
# [1] = mouse, in vivo
# From the text: An important aspect of the medicinal chemistry effort is a thorough analysis of potential in vivo toxicity.
# dendritic cells = assay: Peptide presentation by dendritic cells in vivo (MK16 labeling of draining lymph node cells); conditions: co-administered at 50-200 μM s.c. with MBP peptide
# From the text: Applicants next established the higher levels of peptide presentation in the presence of Compound (Ia) in human antigen presenting cells (APCs). The goal of these experiments is to examine whether Compound (Ia) covalently linked to the MBP peptide (abbreviated as Compound (Ia)*MBP peptide) and Compound (Ia) co-administered with peptide (Compound (Ia)+MBP peptide) enhance binding to MHC-II in vivo compared to unmodified peptide. The MK16 mAb (Krogsgaard et al., 2000, J. Exp. Med., 191:1395-1412) is used to directly quantify DR2/MBP peptide complexes on the surface of dendritic cells in lymph nodes draining the s.c. injection site. Lymph nodes are dissected 24 hours following injection of peptides in PBS and cell suspensions are labeled with CD11c (dendritic cells), MK16 (DR2/MBP), and Annexin-V (exclusion of apoptotic cells) for FACS analysis. The efficacy of Compound (Ia)*MBP peptide and unmodified MBP peptide are compared at concentrations ranging from 1 to 100 μM administered s.c. in the flank in 0.2 ml of PBS. In the co-administration mode, Compound (Ia) is added to the inoculum at concentrations of 50-200 μM.
# CD4 T cell response = assay: Immunization of HLA-DR4 transgenic mice with viral and tumor peptides, CD4 T cell response; type: in vivo; conditions: co-administered with or covalently linked to peptide
# From the text: HLA-DR4 transgenic mice (DRA, DRB1*0401) are used to examine whether Compound (Ib), Compound (Ia) and the other compounds enhance the CD4 T cell response following immunization with viral and tumor peptides. Mice are immunized with peptides from two human pathogens (HIV and HCV) as well as peptides from two human tumor antigens (annexin V and gp100, identified in human melanomas). Applicants have previously performed binding studies with these peptides and shown that they bind with high affinity to DR4. The T cell response is analyzed in two different assays. First, the frequency of peptide-specific T cells is analyzed in draining lymph nodes with DR4/peptide tetramers. This approach provides a quantitative readout of the induced T cell response. Second, the cytokine production profile of these T cells is determined following a 48 hour in vitro re-stimulation with the relevant peptide. The cytometric bead array technique is utilized for comprehensive definition of the cytokine repertoire. Either Compound (Ia) is co-administered with the peptide of interest in the adjuvant or peptides are utilized with a covalently linked Compound (Ia) group (or other groups, depending on which one is being tested). […] These experiments are expected to establish the in vivo efficacy of Compound (Ia) and to establish appropriate dosing and administration procedures with rapid, quantitative readouts. […]
# DR2 [2] = target: T2, DR2 (Homo sapiens, UniProt P01903+P01911); assay: Real-time fluorescence polarization peptide binding assay (DR2/CLIP plus Alexa-488 labeled MBP peptide)
# DR2 [3] = target: T2, DR2; assay: Dissociation of pre-bound Alexa-488 labeled MBP peptide from DR2 followed by fluorescence polarization; type: biochemical; parameters: we generated DR/CLIP complexes as soluble molecules in CHO cells; CLIP peptide (of invariant chain, CD74) joined through a linker with a thrombin cleavage site (N, cleaved yes); made in house; conditions: for displacement (dissociation) of labeled MBP peptide from DR2 by competitor: competitor 50 μM, 150 nM DR2/50 nM Alexa-488 MBP
# Procedure: We also examined whether Compound (Ia) could induce the release of a previously bound high affinity peptide from DR2 as shown in FIG. 4B. This issue is important for potential applications of this small molecule because most DR molecules are occupied by intermediate to high affinity peptides. Applicants therefore loaded the DR2 molecule with the high affinity Alexa™-488 MBP peptide during an overnight incubation and then examined if Compound (Ia) could induce dissociation of this labeled peptide. A molar excess of an unlabeled MBP peptide was added to inhibit rebinding of the labeled peptide to DR2. […] Compound (Ia) thus substantially accelerates peptide binding by creating empty DR molecules.
# We then tested the concept of “self-catalyzed peptide loading” by synthesizing the MBP peptide with an N-terminal or C-terminal cysteine to which the Compound (Ia)-maleimide was linked. These peptide-Compound (Ia) compounds were purified by reverse-phase HPLC and their identity verified by mass spectrometry. Applicants then examined whether the linked Compound (Ia) group could displace a high affinity peptide from the DR2 binding site. For that purpose, we loaded DR2 (1.5 μM) with the Alexa™-488 labeled MBP peptide (500 nM) at 37° C. for 5 hours. The complex was then diluted to 150 nM DR2/50 nM Alexa™-488 and added to a 384-well plate in a volume of 40 μl.
# DR2/CLIP = target: T3, DR2/CLIP (Homo sapiens, UniProt P01903+P01911); assay: Competition for binding of labeled MBP peptide to DR2/CLIP in the FP assay; conditions: 10 nM MBP-488, 100 nM DR2/CLIP, wide dose range
# T3 construct: we generated DR/CLIP complexes as soluble molecules in CHO cells; CLIP peptide (of invariant chain, CD74) joined through a linker with a thrombin cleavage site (N, cleaved yes); made in house
# Procedure: Competitor peptides were tested over a wide dose range against 10 nM MBP-488 and 100 nM DR2/CLIP in the FP assay.
# Compound (Ia)-glatiramer acetate compounds are characterized for their ability to compete for binding of the Alexe™-488 labeled MBP peptide to DR2 in the FP assay, as well as for their ability to inhibit presentation of the MBP peptide to human MBP specific T cell clones, as described in detail above.
# [4] = test system: DR2/MBP specific T cell hybridoma; assay: T cell assay: IL-2 release by DR2/MBP specific T cell hybridoma, MBP (85-99) presented by MGAR cells; type: cell-based; conditions: MGAR cells as APC
# Procedure: Peptide presentation of MBP (85-99) to T cell hybridomas by MGAR cells was measured by IL-2 release.
# [5] = DR2/TCR transgenic mice and other EAE models, from a mean score of ~4; cited from earlier work
# [6] = 20 mg daily subcutaneously over two years; cited from earlier work
molecule,measurement,setting,value
O=C(Cc1c(C(=O)O)[nH]c2ccc(Cl)cc12)Nc1ccc(F)c(Cl)c1 [Compound (Ia)],peptide association to empty DR2 molecules,empty DR2 molecules,substantially accelerated peptide association to empty DR2 molecules
same,lowering of the dose of peptide required for equivalent staining / presentation,MGAR cells; 1 μM MBP peptide plus compound versus 10 μM peptide alone,approximately 10 fold
same,presentation of MBP on MGAR cells (MK16 staining),"MGAR cells; 100 μM compound, 1.7 μM MBP peptide, 30 minutes at 37° C.",significantly increased
same,"acute toxicity, observation of mice",[1],no sips of distress
same,loading of peptides on dendritic cells in vivo,dendritic cells,increases loading of peptides in a dose-dependent manner
same,CD4 T cell response following immunization,CD4 T cell response,substantial enhancement
same,fold increase of the initial rate of peptide association,DR2 [2]; neutral pH,22 fold
same,time to reach half-maximal peptide association,"DR2 [2]; pH 5.2, absence of DM, compound at 109 μM (160 minutes without compound)",7 min
same,rate of peptide binding reaction compared to DM,"DR2 [2]; pH 5.2, higher compound concentrations",faster than in the presence of DM
same,pH of maximum activity,DR2 [2]; pH range 3.75-7.0,5.25
same,fold increase of the initial rate of peptide association,DR2 [2]; pH range from pH 4.5 to 5.75,more than 58 fold
same,dissociation of previously bound high affinity labeled MBP peptide from DR2,"DR2 [3]; excess unlabeled MBP peptide, versus DMSO control",marked acceleration of peptide dissociation
same,concentration range inducing peptide dissociation,DR2 [3]; release of high affinity peptides from DR2,low micro-molar range
O=C(Cc1c(C(=O)O)[nH]c2c(F)c(F)c(F)cc12)Nc1ccc(Cl)c(Cl)c1 [Compound (Ib)],activity relative to Compound (Ia) in loading of MBP peptide to DR2,MGAR cells,substantially higher activity than Compound (Ia)
same,fold higher activity than Compound (Ia) in catalyzing loading of the MBP peptide to DR2,DR2 [2]; biochemical assay,4.2 fold
O=C(Cc1c(C(=O)O)[nH]c2ccccc12)Nc1ccc(Cl)c(Cl)c1 [Compound (Ic)],activity relative to Compound (Ia) in loading of MBP peptide to DR2,MGAR cells,higher activities than Compound (Ia)
O=C(Cc1c(C(=O)O)[nH]c2c(F)c(F)c(F)cc12)Nc1ccc(F)c(Cl)c1 [Compound (Id)],activity relative to Compound (Ia) in loading of MBP peptide to DR2,MGAR cells,higher activities than Compound (Ia)
"MBP peptide without linked Compound (Ia): unmodified myelin basic protein (85-99) peptide that binds with high affinity to DR2 (PGSRPHLIRLFSRDA; UniProt P02686 85-99, looked up, fragment) [reference compound]",displacement (dissociation) of labeled MBP peptide from DR2 by competitor,DR2 [3],slow dissociation
"MBP-C-Compound (Ia): MBP peptide with a C-terminal cysteine to which the Compound (Ia)-maleimide was linked (PGSRPHLIRLFSRDA-{C(Compound (Ia)-maleimide)}; reading uncertain; UniProt P02686 85-99, looked up, fragment)",competition against labeled MBP peptide for DR2/CLIP,DR2/CLIP,more effective competitor than unmodified MBP peptide
same,IL-2 production by T cell hybridoma,[4],higher levels of IL-2 production
same,displacement (dissociation) of labeled MBP peptide from DR2 by competitor,DR2 [3]; listed as MBP peptide with C-terminally linked Compound (Ia),more effective in displacing the labeled peptide; also recorded: more favorable
glatiramer acetate,mean EAE score under treatment,[5],~2
same,reduction of relapse rate,[6],29%
